Some test systems named below: 786-0; A549; CAKI-1; HCT-116; HL-60; HT-29; Hs-578T; MDA-MB-231; MDA-MB-435; NCI-H460; NCI/ADR-RES; OVCAR-5; OVCAR-8; PC-3; RPMI-8226; RXF 393; SN12C; T47D; TK-10; UACC-257.
Holding throughout (assay): inhibition of tumour cell growth, NCI panel, 48 h

Molecules are shown by their SMILES.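 All cell lines were grown in 96-well plates and treated with compound for 48 hours. Here, GI50 denotes the concentration required for 50% inhibition of growth.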 The source made the active and inactive calls. Rule as the data show it: active = GI50 up to about 1.1 µM and inactive = higher.

Turning to `C/C(=N\NC(=[Se])N(C)C)c1ccccn1`, the GI50 is 0.0559 µM (active) in the experiment on 786-0; 0.02 µM (active) in the experiment with A549; 0.188 µM (active) with CAKI-1; < 0.01 µM (active) with HCT-116; < 0.01 µM (active) with HL-60; < 0.01 µM (active) in the experiment on HT-29. Besides, the GI50 in the experiment on Hs-578T is 0.208 µM (active); with MDA-MB-231, 0.0131 µM (active); in the experiment on MDA-MB-435, 1.11 µM (active); with NCI-H460 it was < 0.01 µM (active); with NCI/ADR-RES, < 0.01 µM (active); with OVCAR-5, 0.103 µM (active). Moreover, the GI50 in the experiment with OVCAR-8 is < 0.01 µM (active); with PC-3, < 0.01 µM (active); with RPMI-8226 it was < 0.01 µM (active); in the experiment with RXF 393, 0.455 µM (active); with SN12C, 0.0143 µM (active); in the experiment with T47D, 0.0364 µM (active). The figures for the GI50 in the experiment on TK-10 and in the experiment with UACC-257 were 1.87 µM (inactive) and < 0.01 µM (active), respectively.

For the compound `O=C1Sc2ccc(Br)cc2C(=O)Sc2ccccc21`, the GI50 with 786-0 was 11 µM (inactive); in the experiment on A549 it was 27.1 µM (inactive); in the experiment with CAKI-1 it was 14.6 µM (inactive); in the experiment on HCT-116 it was 13 µM (inactive); in the experiment with HL-60 it was 2.42 µM (inactive); in the experiment on HT-29 it was 14.3 µM (inactive). The GI50 was 11.4 µM (inactive) in the experiment with Hs-578T; 16.5 µM (inactive) in the experiment with MDA-MB-231; 7.91 µM (inactive) in the experiment on MDA-MB-435; 15.8 µM (inactive) in the experiment with NCI-H460; 16 µM (inactive) in the experiment with NCI/ADR-RES; 17.9 µM (inactive) in the experiment on OVCAR-5. Further, the GI50 in the experiment with OVCAR-8 was 9.84 µM (inactive); in the experiment with PC-3, 13 µM (inactive); in the experiment with RPMI-8226 it was 3.33 µM (inactive); in the experiment on RXF 393 it was 4.56 µM (inactive); in the experiment on SN12C, 14.5 µM (inactive); in the experiment on T47D, 9.29 µM (inactive). For the same compound, the GI50 in the experiment on TK-10 was 17.9 µM (inactive); in the experiment on UACC-257, 13.8 µM (inactive).

In the case of `CC(=O)[C@@]1(O)CC[C@H]2[C@@H]3C[C@H](C)C4=CC(=O)C=C[C@]4(C)[C@@]3(F)[C@@H](O)C[C@@]21C` [FLUOROMETHOLONE], the GI50 in the experiment with 786-0, with A549, with CAKI-1, in the experiment with HCT-116, with HL-60 and in the experiment on HT-29 was > 100 µM (inactive) each time. For the same compound, the GI50 is > 100 µM (inactive) with Hs-578T; > 91 µM (inactive) in the experiment with MDA-MB-231; > 100 µM (inactive) in the experiment on MDA-MB-435; > 100 µM (inactive) in the experiment with NCI-H460; > 100 µM (inactive) with NCI/ADR-RES; > 38.5 µM (inactive) in the experiment with OVCAR-5. Also, the GI50 in the experiment on OVCAR-8 is > 69.7 µM (inactive); in the experiment on PC-3, > 59.3 µM (inactive); in the experiment on RPMI-8226, > 14.6 µM (inactive); with RXF 393, > 91.4 µM (inactive); with SN12C, > 100 µM (inactive); with T47D, > 69.8 µM (inactive). The GI50 with TK-10 and with UACC-257 was > 100 µM (inactive) in each case.

Turning to `CN(C)/C=N/n1c2ccccc2c2ccccc21`, the GI50 is > 100 µM (inactive) with 786-0; > 100 µM (inactive) in the experiment on A549; 3.64 µM (inactive) with CAKI-1; > 100 µM (inactive) in the experiment on HCT-116; > 100 µM (inactive) in the experiment with HL-60; > 100 µM (inactive) in the experiment with HT-29. For the same compound, the GI50 in the experiment on Hs-578T was 34 µM (inactive); with MDA-MB-231 it was > 100 µM (inactive); in the experiment with MDA-MB-435, > 100 µM (inactive); in the experiment with NCI-H460 it was > 100 µM (inactive); in the experiment with NCI/ADR-RES, > 100 µM (inactive); in the experiment with OVCAR-5, > 100 µM (inactive). Also, the GI50 in the experiment with OVCAR-8, with PC-3, in the experiment with RPMI-8226, in the experiment with RXF 393, with SN12C and with T47D was > 100 µM (inactive) throughout. Besides, the GI50 with TK-10 and with UACC-257 was > 100 µM (inactive) each time.

`O=C1OC(C2=CC(=O)c3ccccc3C2=O)C(Cl)=C1Cl` (stereo not given): the GI50 is 17.9 µM (inactive) with 786-0; 89.5 µM (inactive) in the experiment on A549; 67.9 µM (inactive) in the experiment with CAKI-1; 32.4 µM (inactive) in the experiment on HCT-116; 35.9 µM (inactive) in the experiment on HL-60; 42 µM (inactive) in the experiment with HT-29. In addition, the GI50 in the experiment with Hs-578T was 54.7 µM (inactive); with MDA-MB-231 it was 11.6 µM (inactive); in the experiment on MDA-MB-435 it was 35.6 µM (inactive); in the experiment with NCI-H460 it was 56.8 µM (inactive); in the experiment on NCI/ADR-RES, 31.5 µM (inactive); with OVCAR-5, 36.3 µM (inactive). Further, the GI50 in the experiment on OVCAR-8 was 13.7 µM (inactive); in the experiment on PC-3, 27.3 µM (inactive); with RPMI-8226 it was 19.5 µM (inactive); in the experiment on RXF 393 it was 25.2 µM (inactive); with SN12C, 18.3 µM (inactive); in the experiment on T47D, 29.1 µM (inactive). Moreover, the GI50 in the experiment with TK-10 was 66.7 µM (inactive); in the experiment with UACC-257, 77.8 µM (inactive).

As to `COC(=O)[C@@H]1C=C[C@H](OC2OC(COC(C)=O)C(OC(C)=O)C(OC(C)=O)C2OC(C)=O)n2c(=O)c3ccccc3c(=O)n21` (stereo not given in full), the GI50 in the experiment on 786-0 is 16.1 µM (inactive); in the experiment with A549, 21.4 µM (inactive); with CAKI-1, 3.45 µM (inactive); in the experiment on HCT-116, 10.9 µM (inactive); in the experiment on HL-60, 3.95 µM (inactive); in the experiment with HT-29, 7.21 µM (inactive). Also, the GI50 in the experiment on Hs-578T was 27.7 µM (inactive); with MDA-MB-231 it was > 10 µM (inactive); in the experiment with MDA-MB-435, 9.16 µM (inactive); in the experiment with NCI-H460 it was 12.3 µM (inactive); with NCI/ADR-RES it was 19.8 µM (inactive); with OVCAR-5, 16 µM (inactive). Besides, the GI50 in the experiment with OVCAR-8 was 16.5 µM (inactive); in the experiment on PC-3 it was 6.62 µM (inactive); in the experiment with RPMI-8226, 4.66 µM (inactive); in the experiment on RXF 393 it was 6.05 µM (inactive); in the experiment on SN12C it was > 10 µM (inactive); with T47D it was 4.7 µM (inactive). Besides, the GI50 in the experiment on TK-10 is 2.91 µM (inactive); in the experiment with UACC-257, 17.2 µM (inactive).

On to `NC(=O)NOCC1NC(=O)NC1=O` (stereo not given), for which the GI50 is > 100 µM (inactive) in the experiment with 786-0; > 100 µM (inactive) in the experiment on A549; > 100 µM (inactive) in the experiment with CAKI-1; > 100 µM (inactive) with HCT-116; 19.3 µM (inactive) with HL-60; > 100 µM (inactive) with HT-29. Besides, the GI50 in the experiment on Hs-578T, with MDA-MB-231, in the experiment with MDA-MB-435, in the experiment on NCI-H460, in the experiment on NCI/ADR-RES and with OVCAR-5 was > 100 µM (inactive) in each case. Moreover, the GI50 in the experiment with OVCAR-8, with PC-3, in the experiment on RPMI-8226, in the experiment with RXF 393, in the experiment on SN12C and in the experiment on T47D was > 100 µM (inactive) in each case. Also, the GI50 with TK-10 and in the experiment on UACC-257 was > 100 µM (inactive) in each case.

Turning to `CC(=O)Nc1nnc(S(=O)(=O)NC(=S)Nc2ccc(Cl)cc2)s1`, the GI50 in the experiment with 786-0, with A549, in the experiment on CAKI-1, with HCT-116, in the experiment on HL-60 and in the experiment on HT-29 was > 100 µM (inactive) each time. Also, the GI50 with Hs-578T, with MDA-MB-231, in the experiment with MDA-MB-435, with NCI-H460, in the experiment on NCI/ADR-RES and with OVCAR-5 was > 100 µM (inactive) each time. In addition, the GI50 in the experiment with OVCAR-8, in the experiment on PC-3, in the experiment with RPMI-8226, in the experiment with RXF 393, in the experiment on SN12C and in the experiment with T47D was > 100 µM (inactive) in each case. Moreover, the GI50 in the experiment with TK-10 and in the experiment with UACC-257 was > 100 µM (inactive) each time.

For `CO[C@H]1[C@@H](O)[C@@H](O)O[C@@H](O[C@H]2CC[C@@]3(C)[C@H](CC[C@@H]4[C@@H]3[C@H](O)C[C@]3(C)[C@@H](C5=CC(=O)OC5)CC[C@]43O)C2)[C@@H]1O`, the GI50 was 0.296 µM (active) with 786-0; 0.0491 µM (active) with A549; 0.111 µM (active) with CAKI-1; 0.178 µM (active) with HCT-116; 0.191 µM (active) in the experiment on HL-60; 0.435 µM (active) in the experiment with HT-29. Also, the GI50 in the experiment on Hs-578T is 0.407 µM (active); in the experiment on MDA-MB-231 it was 0.649 µM (active); in the experiment on MDA-MB-435 it was 0.28 µM (active); in the experiment with NCI-H460, 0.0895 µM (active); in the experiment with NCI/ADR-RES, 0.222 µM (active); in the experiment on OVCAR-5, 0.601 µM (active). The GI50 with OVCAR-8 is 0.33 µM (active); in the experiment with PC-3, 0.283 µM (active); in the experiment on RPMI-8226 it was 0.198 µM (active); in the experiment on RXF 393, 0.056 µM (active); with SN12C it was 0.064 µM (active); with T47D, 0.362 µM (active). In addition, the GI50 with TK-10 is 0.187 µM (active); in the experiment with UACC-257, 0.382 µM (active).
